US20240174727A1, “LONG-ACTING NATRIURETIC PEPTIDES AND USES THEREOF” (Eli Lilly and Company, priority 2022, published 2024)
Read-outs that look alike come from different tables or passages of the source. Numbered stars: 1 amine (or outer) side, 2 acyl side, 3 side chain; on linkers, the order of the positions; unused ones are H or OH. Bridge positions count the residues as written; N and C are the ends. Square brackets hold non-standard residues; d marks the D form. * marks the point of attachment. C20 diacid = O=C(O)CCCCCCCCCCCCCCCCCCC(=O)*; γGlu = O=C(O)[C@H](CCC(=O)[*:2])N[*:1]; 4Pal = N[C@@H](Cc1ccncc1)C(=O)O; AEEA = NCCOCCOCC(=O)O; CH2 = C([*:1])[*:2]; βAla = NCCC(=O)O

What was measured:
human NPRA = target: T1, human NPRA (Homo sapiens, UniProt P16066); assay: Human NPRA cGMP activity assay (HTRF) in HEK293 cells overexpressing NPRA; assay type: cell-based; settings: assay buffer with 0.1% casein
T1 construct: Full-Length cDNA Cloning and Generation of Cell Lines Overexpressing Natriuretic Peptide Receptors (NPRs); expressed in transfected cells; host or cells: Jump-in T-Rex HEK293 cells, pJTI R4 CMV-TO MCS pA vector, tetracycline induction
T1 sequence (P16066 33-1061): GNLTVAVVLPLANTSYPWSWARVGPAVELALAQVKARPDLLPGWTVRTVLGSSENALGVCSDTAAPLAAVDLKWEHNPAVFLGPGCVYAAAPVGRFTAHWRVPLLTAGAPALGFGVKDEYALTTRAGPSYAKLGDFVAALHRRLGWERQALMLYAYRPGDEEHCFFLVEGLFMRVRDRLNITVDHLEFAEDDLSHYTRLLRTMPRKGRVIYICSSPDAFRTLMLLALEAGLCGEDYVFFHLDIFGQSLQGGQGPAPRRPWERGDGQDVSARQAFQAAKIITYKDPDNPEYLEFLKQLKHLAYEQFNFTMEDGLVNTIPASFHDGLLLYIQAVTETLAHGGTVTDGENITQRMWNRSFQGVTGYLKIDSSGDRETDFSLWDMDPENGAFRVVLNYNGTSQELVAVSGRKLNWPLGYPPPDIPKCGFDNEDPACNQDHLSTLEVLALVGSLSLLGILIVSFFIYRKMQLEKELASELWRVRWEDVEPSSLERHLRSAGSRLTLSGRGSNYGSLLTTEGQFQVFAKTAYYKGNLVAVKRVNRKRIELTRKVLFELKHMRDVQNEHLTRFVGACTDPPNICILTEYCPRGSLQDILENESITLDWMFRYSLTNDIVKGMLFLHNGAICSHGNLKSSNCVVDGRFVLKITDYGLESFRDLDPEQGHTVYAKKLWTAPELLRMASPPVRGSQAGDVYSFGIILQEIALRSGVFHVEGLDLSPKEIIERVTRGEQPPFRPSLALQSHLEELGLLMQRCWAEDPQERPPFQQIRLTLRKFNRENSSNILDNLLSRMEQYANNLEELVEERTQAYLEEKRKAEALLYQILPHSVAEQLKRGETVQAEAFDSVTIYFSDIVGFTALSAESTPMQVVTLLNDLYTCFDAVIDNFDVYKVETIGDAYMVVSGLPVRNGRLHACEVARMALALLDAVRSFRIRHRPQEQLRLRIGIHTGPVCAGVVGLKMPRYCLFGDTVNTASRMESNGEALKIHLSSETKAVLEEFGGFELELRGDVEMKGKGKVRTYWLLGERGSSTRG
Protocol: All sequences were verified by full-length sequencing performed by ACGT DNA Sequencing Services (Wheeling, IL). The target cDNA was cloned into pJTI R4 CMV-TO MCS pA vector and then co-transfected with pJT1R4 Int vector into Jump-in™ T-Rex™ HEK293 cells for mammalian inducible expression using Jump-in™ T-Rex™ HEK293 kit and Lipofectamine LTX and Plus Reagent following manufacturer's protocols, as briefly described below.
Jump-in™ T-Rex™ HEK293 cells were plated in a BioCOAT® poly-D-lysine coated 6-well plate (Becton Dickinson, cat no. 354413) at 1 million cells/well in 2 mL culture medium and incubated for 18 h at 37° C. and 5% CO2 to 50-70% confluence. A cDNA mix was made in a 50 mL tube by adding 1.5 μg target cDNA, 1.5 μg pJT1R4 Int vector, 3 μL Plus Reagent, and 300 μL Opti-MEM I sequentially into the tube. A reagent mix was made in a separate 50 mL tube by adding 7.5 μL Lipofectamine LTX into 300 μL Opti-MEM I. The mixtures were incubated for 5 min at room temperature. The cDNA mix was then transferred into the reagent mix, mixed well, and incubated for additional 30 min at room temperature. A 500 μL of cDNA/Lipofectamine complex was then transferred to the wells of the cell plate in which the culture medium was changed to 2 mL of transfection medium containing DMEM with 4.5 g/L D-glucose supplemented with 10% FBS-HI and 20 mM HEPES. Transfected cells were cultured for 48 h in an incubator at 37° C. and 5% CO2. A subclone or pool from each overexpressing cell line was maintained in culture medium with the addition of 2 mg/mL G418 sulfate for the clone selection based on its built-in resistance to G418 sulfate for at least 3 weeks with medium changed every 2-3 days.
NPRs were overexpressed in T-Rex™ HEK293 cells following the induction with 300 ng/mL tetracycline in culture medium for 48 h. Induced cell lines in an exponential growth phase were treated with 0.05% trypsin-EDTA for a few seconds at room temperature, harvested in cell medium containing FBS to neutralize the trypsin, counted, and cryopreserved at the density of 2 million cells/mL in cell preservation solution containing FBS-HI with 5% DMSO. Cryopreserved cells were stored at −80° C. for a few days prior to transferring to a liquid nitrogen tank. Induced cell lines were then used for suspension assays to measure the activity of polypeptides to stimulate cGMP production in cGMP assays or for the preparation of cell membranes to measure the binding activity of polypeptides in competitive radioligand binding assays, as described below.
Test polypeptides were added starting at 10 μM concentration and at 10-fold decreasing concentrations to obtain 8-point concentration-response curves (i.e., 10 μM to 1 pM). The quantity of cGMP generated was detected using HTRF® technology and normalized to maximum amount produced by 100 nM amidated rat ANP and the minimum amount produced by assay buffer. Detailed steps are outlined below.
Stock solutions of test polypeptides (2 mM) dissolved in DMSO were first diluted 100-fold in assay buffer containing HBSS with Ca^2+ and Mg^2+, 5 mM HEPES, 0.5 mM IBMX, and 0.1% BSA or 0.1% casein (pH 7.4). The polypeptides were further serially diluted in 1:10 dilution steps in assay buffer containing 0.1% BSA or 0.1% casein to generate 8-point 2× working stock solutions ranging from 20 μM to […].
A 10 μL cell suspension containing 4000 cells was plated in Costar® half-area white opaque 96-well plates (Corning, cat no. 3693). Then 10 μL of assay buffer (basal activity), 200 nM of amidated rat ANP (maximum activity) or 2× working stock solutions of test polypeptides were transferred into the plate. Final concentration of DMSO in each well was 0.5%. The plate was shaken for 15 sec and then incubated for 40 min at room temperature.
The cGMP generated was measured using cGMP kit following the manufacturer's directions, as described below.

rat NPRA = target: T2, rat NPRA (Rattus norvegicus, UniProt P18910); assay: Rat NPRA cGMP activity assay (HTRF) in HEK293 cells overexpressing NPRA; assay type: cell-based
T2 construct: Full-Length cDNA Cloning and Generation of Cell Lines Overexpressing Natriuretic Peptide Receptors (NPRs); expressed in transfected cells; host or cells: Jump-in T-Rex HEK293 cells, pJTI R4 CMV-TO MCS pA vector, tetracycline induction
T2 sequence (P18910 29-1057): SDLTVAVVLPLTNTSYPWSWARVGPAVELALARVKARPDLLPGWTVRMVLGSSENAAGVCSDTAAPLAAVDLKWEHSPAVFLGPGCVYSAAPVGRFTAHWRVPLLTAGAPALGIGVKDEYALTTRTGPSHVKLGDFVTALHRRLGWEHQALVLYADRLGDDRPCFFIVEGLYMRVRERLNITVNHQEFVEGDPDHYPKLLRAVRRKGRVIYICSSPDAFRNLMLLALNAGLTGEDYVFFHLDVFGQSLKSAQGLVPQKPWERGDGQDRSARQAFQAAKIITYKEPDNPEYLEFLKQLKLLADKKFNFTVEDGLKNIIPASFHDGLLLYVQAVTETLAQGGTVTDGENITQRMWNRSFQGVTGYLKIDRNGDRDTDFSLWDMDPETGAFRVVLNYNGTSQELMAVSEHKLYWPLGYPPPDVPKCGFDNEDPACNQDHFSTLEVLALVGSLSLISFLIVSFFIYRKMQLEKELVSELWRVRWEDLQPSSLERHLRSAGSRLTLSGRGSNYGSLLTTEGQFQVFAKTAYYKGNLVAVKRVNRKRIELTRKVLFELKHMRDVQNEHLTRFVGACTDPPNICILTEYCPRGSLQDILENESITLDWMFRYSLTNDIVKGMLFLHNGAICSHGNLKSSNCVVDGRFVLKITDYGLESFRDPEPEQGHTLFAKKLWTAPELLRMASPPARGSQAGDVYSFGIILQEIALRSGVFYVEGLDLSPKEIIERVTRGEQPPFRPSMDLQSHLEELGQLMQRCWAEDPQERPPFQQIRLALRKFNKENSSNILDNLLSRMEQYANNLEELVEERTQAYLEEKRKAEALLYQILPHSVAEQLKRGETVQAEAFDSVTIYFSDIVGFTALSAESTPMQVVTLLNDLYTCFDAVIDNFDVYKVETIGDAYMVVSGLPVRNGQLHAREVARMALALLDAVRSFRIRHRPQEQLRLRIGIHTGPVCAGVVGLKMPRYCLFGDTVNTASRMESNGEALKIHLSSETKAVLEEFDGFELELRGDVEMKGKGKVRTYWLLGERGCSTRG
Outline: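 cGMP measured by HTRF and scaled between buffer (minimum) and 100 nM amidated rat ANP (maximum). Polypeptides in 10-fold steps from 10 μM to 1 pM, 0.5% DMSO, 0.5 mM IBMX, 40 min at room temperature, on induced NPRA-overexpressing HEK293 cells.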

[1] = read-out: cGMP Assay (EC50, pM) w/Casein hNPRA
[2] = assay buffer with 0.1% casein, read-out: cGMP Assay (EC50, pM) w/Casein rNPRA

Compound	EC50 (human NPRA; [1])	EC50 (rat NPRA; [2])	EC50 (rat NPRA; assay buffer with 0.1% BSA, read-out: cGMP Assay (EC50, pM) w/BSA rNPRA)	EC50 (human NPRA; cGMP Assay (EC50, pM) w/Casein hNPRA)	EC50 (rat NPRA; cGMP Assay (EC50, pM) w/Casein rNPRA, assay buffer with 0.1% casein)
{C20 diacid-γGlu}-EKEKEKGS[4Pal]RRSSCFGGRIDRIGHQSGLGCPSFRHGGKSSGAPPPS-NH2 (linker 14-30 via CH2) [Example 67]	1220 pM	18800 pM	–	–	–
CC[C@H](C)[C@@H]1NC(=O)[C@H](CCCNC(=N)N)NC(=O)[C@H](CC(=O)O)NC(=O)[C@H]([C@@H](C)CC)NC(=O)[C@H](CCCNC(=N)N)NC(=O)CNC(=O)CNC(=O)[C@H](Cc2ccccc2)NC(=O)[C@@H](NC(=O)[C@H](CO)NC(=O)[C@H](CO)NC(=O)[C@H](CCCNC(=N)N)NC(=O)[C@H](CCCNC(=N)N)NC(=O)[C@H](Cc2ccncc2)NC(=O)[C@H](CO)NC(=O)CNC(=O)[C@H](CCCCN)NC(=O)[C@H](CCC(=O)O)NC(=O)[C@H](CCCCN)NC(=O)[C@H](CCC(=O)O)NC(=O)[C@H](CCCCN)NC(=O)[C@H](CCC(=O)O)NC(=O)CC[C@H](NC(=O)CCCCCCCCCCCCCCCCCCC(=O)O)C(=O)O)CSSC[C@@H](C(=O)N[C@@H](CC(N)=O)C(=O)N[C@@H](CO)C(=O)N[C@@H](Cc2ccccc2)C(=O)N[C@@H](CCCNC(=N)N)C(=O)N[C@@H](Cc2ccc(O)cc2)C(N)=O)NC(=O)CNC(=O)[C@H](CC(C)C)NC(=O)CNC(=O)[C@H](CO)NC(=O)[C@H](CCC(N)=O)NC(=O)[C@H](C)NC(=O)CNC1=O [Example 11]	1020 pM	–	24700 pM	–	–
{C20 diacid-γGlu}-EKEKEKG[AEEA][AEEA][AEEA][AEEA][AEEA][AEEA]EK[βAla]RSSCFGKRIDRIGHQSGLGCPSFRHGSPSSGAPPPS-NH2 (linker 20-36 via CH2) [Example 119]	493 pM	17900 pM	–	–	–
CC[C@H](C)[C@@H]1NC(=O)[C@H](CCCNC(=N)N)NC(=O)[C@H](CC(=O)O)NC(=O)[C@H]([C@@H](C)CC)NC(=O)[C@H](CCCNC(=N)N)NC(=O)CNC(=O)CNC(=O)[C@H](Cc2ccccc2)NC(=O)[C@@H](NC(=O)[C@H](CO)NC(=O)[C@H](CO)NC(=O)[C@H](CCCNC(=N)N)NC(=O)[C@H](CCCNC(=N)N)NC(=O)[C@H](Cc2ccncc2)NC(=O)[C@H](CO)NC(=O)COCCOCCNC(=O)COCCOCCNC(=O)COCCOCCNC(=O)COCCOCCNC(=O)COCCOCCNC(=O)COCCOCCNC(=O)CNC(=O)[C@H](CCCCN)NC(=O)[C@H](CCC(=O)O)NC(=O)[C@H](CCCCN)NC(=O)[C@H](CCC(=O)O)NC(=O)[C@H](CCCCN)NC(=O)[C@H](CCC(=O)O)NC(=O)CC[C@H](NC(=O)CCCCCCCCCCCCCCCCCCC(=O)O)C(=O)O)CSCSC[C@@H](C(=O)N2CCC[C@H]2C(=O)N[C@@H](CO)C(=O)N[C@@H](Cc2ccccc2)C(=O)N[C@@H](CCCNC(=N)N)C(=O)N[C@@H](Cc2c[nH]cn2)C(=O)NCC(=O)N[C@@H](CO)C(=O)N2CCC[C@H]2C(=O)N[C@@H](CO)C(=O)N[C@@H](CO)C(=O)NCC(=O)N[C@@H](C)C(=O)N2CCC[C@H]2C(=O)N2CCC[C@H]2C(=O)N2CCC[C@H]2C(=O)N[C@@H](CO)C(N)=O)NC(=O)CNC(=O)[C@H](CC(C)C)NC(=O)CNC(=O)[C@H](CO)NC(=O)[C@H](Cc2ccc(O)cc2)NC(=O)[C@H](Cc2c[nH]cn2)NC(=O)CNC1=O [Example 96]	–	–	–	720 pM	12200 pM
